Values belong to the molecule of their own block, whether it stands above or below them.
Experiments:
GPR17 [1] = target: T1, GPR17 (Rattus norvegicus, UniProt Q09QM4); experiment: cAMP assay: inhibition of forskolin-stimulated adenylyl cyclase activity in primary OPCs; assay type: cell-based
T1 construct: oligodendrocyte precursor cells (OPCs) natively expressing GPR17; endogenous in cells; host or cells: primary OPCs from postnatal day 2 Sprague-Dawley rat cortex
Protocol: (§1) The pharmacological profile of Asinex 1 was assessed in three different in vitro assays of increasing complexity in oligodendrocyte precursor cells (OPCs) natively expressing GPR17. Primary rat OPCs were cultured either alone or in the presence of mouse DRG neurons, according to a well-established protocol, previously described in Fumagalli et al. ([2015]). The endogenous GPR17 ligands UDP and LTD4 were selected as reference ligands. For more details on culture preparation and analysis, see Supplementary Information.
In order to determine the intracellular cAMP levels, primary purified OPCs were treated with Asinex 1 after 6 days in culture, when GPR17 expression reaches the maximum peak. A competitive protein binding method was used following the procedure previously described (Fumagalli et al., [2015]). Briefly, culture medium was removed, and cells were incubated at 37°C for 15 min with 400 μL of Neurobasal medium in the presence of the phosphodiesterase inhibitor Ro20-1724 (20 μM). The concentration-response curve of tested ligands was assessed by measuring their ability to inhibit cAMP accumulation stimulated by 10 μM forskolin. Asinex 1 was added to cells for 15 min at graded concentration (0.1–50 nM). […] Reactions were terminated by medium removal and addition of 200 μL of 0.4 N HCl. After 30 min, lysates were neutralized with 50 μL of 4 N KOH, and the suspension was centrifuged at 800× g for 5 min. For determination of cAMP, cAMP-binding protein isolated from bovine adrenal glands was incubated with [^3H]cAMP (2 nM), 50 μL of cell lysate or cAMP standard (0–16 pmol) at 4°C for 150 min, in a total volume of 300 μL. Bound radioactivity was separated by rapid filtration through GF/C glass fiber filters and washed twice with 4 mL of 50 mM Tris-HCl, pH 7.4. Radioactivity was measured by liquid scintillation spectrometry.

GPR17 [2] = system: GPR17; set-up: method as in earlier work; settings: literature functional assay, ref Abbracchio et al., 2006, Ciana et al., Eberini et al., 2011; cited from earlier work
primary OPCs = experiment: OPC differentiation assay (MBP+ cells, immunocytochemistry); assay type: cell-based, rat; settings: 48 h
Protocol: as §1
(§2) GPR17 ligands were tested both in primary OPCs culture and in OPC/DRG co-cultures to assess their pro-differentiation and pro-myelination effect, respectively. According to the type of culture, a specific protocol of treatment was set up. For primary OPCs, cells were seeded on 13 mm poly-D,L-ornithine-coated coverslips (2 × 10^4 cells/well) and maintained for 2 days in Neurobasal medium supplemented with B27 and proliferative factors (PDGF-BB and bFGF). Afterwards, OPC differentiation was induced by removing proliferative factors and by adding T3 and pharmacological treatments with Asinex 1 (1 or 10 nM) and LTD4 (200 nM), selected as reference compound, were performed the following day. After 48 h, cells were fixed for immunocytochemistry (ICC). For OPC/DRG co-cultures, Asinex 1 (10 nM) and UDP (100 μM) were added to cultures at day 4. The pharmacological treatment was repeated every 2 days up to day 15, when cells were fixed for ICC analysis. For more details, see Supplementary Information.
Oligodendrocyte precursor cell cultures
Primary oligodendrocyte precursor cells (OPCs) were isolated from mixed glial cultures prepared from postnatal day 2 Sprague-Dawley rat cortex by shaking cells on an orbital shaker at 200 rpm, as previously described (Fumagalli et al., 2015). OPCs were then collected and separated from microglia by incubation for 1 h in an uncoated Petri dish. […]

OPC-DRG co-cultures = experiment: Myelination assay in OPC-DRG co-cultures (Myelination Index); assay type: cell-based, rat OPCs, mouse DRG neurons; settings: day 4 to day 15
Protocol: as §1
as §2, with “The pharmacological treatment was repeated every 2 days up to day 15, when cells were fixed for ICC analysis. For more details, see Supplementary Information.” left out

T1 sequence (Q09QM4 whole entry): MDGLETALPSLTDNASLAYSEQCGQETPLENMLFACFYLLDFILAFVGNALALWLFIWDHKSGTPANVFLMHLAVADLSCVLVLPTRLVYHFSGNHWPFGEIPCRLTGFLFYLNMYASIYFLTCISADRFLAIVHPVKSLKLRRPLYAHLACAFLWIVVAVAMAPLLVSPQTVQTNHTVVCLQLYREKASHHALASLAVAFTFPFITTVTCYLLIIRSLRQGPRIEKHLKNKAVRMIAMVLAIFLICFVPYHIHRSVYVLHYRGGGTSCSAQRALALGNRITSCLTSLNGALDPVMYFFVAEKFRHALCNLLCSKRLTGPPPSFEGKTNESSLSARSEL

IC50 (GPR17 [1]; primary OPCs, constant ASN 1 concentration of 10 nM, read-out: IC50, antagonism of ASN 1-mediated inhibition of forskolin-stimulated adenylyl cyclase activity): 10.2 ± 0.8 nM
SMILES: CSCCNc1nc(SCCC(F)(F)F)nc2c1ncn2[C@@H]1O[C@H](COP(=O)(O)OP(=O)(O)C(Cl)(Cl)P(=O)(O)O)[C@@H](O)[C@H]1O [Cangrelor]
ratio between Cangrelor and Asinex 1 affinities (GPR17 [2]): 7

SMILES: CCCCC/C=C\C\C=C/C=C/C=C/[C@@H](SC[C@H](N)C(=O)NCC(=O)O)[C@@H](O)CCCC(=O)O [LTD4]
percentage of MBP+ cells (control set to 100%) (primary OPCs; 200 nM): 171.0 ± 21.70%

SMILES: O=c1ccn([C@@H]2O[C@H](COP(=O)(O)OP(=O)(O)O)[C@@H](O)[C@H]2O)c(=O)[nH]1 [UDP]
Myelination Index (control 100%) (OPC-DRG co-cultures; 100 μM): 193.9 ± 32.31%

EC50 (GPR17 [1]; primary OPCs, 10 μM forskolin, 0.1–50 nM, read-out: EC50, inhibition of forskolin-stimulated cAMP formation): 6.5 ± 0.8 nM | pharmacological profile at GPR17 (GPR17 [1]; primary rat OPCs, nucleotide binding site): full agonist
SMILES: COc1ccc(-n2c(SC(C)C(=O)Nc3ccccc3)nnc2-c2ccccc2OC)cc1 (stereo not drawn) [Asinex 1, 2-[[5-(2-methoxyphenyl)-4-(4-methoxyphenyl)-4H-1,2,4-triazol-3-yl]thio]-N-phenyl-propanamide]
percentage of MBP+ cells (control set to 100%) (primary OPCs; 1 nM): 166.5 ± 16.21% | percentage of MBP+ cells (control set to 100%) (primary OPCs; 10 nM): 158.3 ± 15.77% | Myelination Index (control 100%) (OPC-DRG co-cultures; 10 nM): 240.3 ± 64.43%

— PMC6966494, “Surface Plasmon Resonance as a Tool for Ligand Binding Investigation of Engineered GPR17 Receptor, a G Protein Coupled Receptor Involved in Myelination” (Frontiers in Chemistry, 2020)
